# Square brackets hold non-standard residues; d marks the D form. Peptide text beside a SMILES is read from it. Phe(ol) = N[C@H](CO)Cc1ccccc1; Leu(ol) = CC(C)C[C@H](N)CO; dIva = CC[C@@](C)(N)C(=O)O; Aib = CC(C)(N)C(=O)O
# Tests used:
# [1] = tested on: PfMDR1 cKD parasite line; assay: MDR1 compound susceptibility assay (Renilla luciferase); on pfMDR1 cKD Sensitivity: key: -: A '–' indicates a negative finding; a single '+' indicates a positive finding; a double '++' indicates a strong positive finding; format: cell-based, P. falciparum; conditions: for shift in sensitivity upon PfMDR1 knockdown: with (0.5 μM) vs without aTc, 72 h, luminescence; for pfMDR1 cKD Sensitivity: Figure 7A summary / graphical abstract
# Excerpt: A conditional knockdown parasite line was generated for the P. falciparum multi-drug resistance 1 (MDR1; PF3D7_0523000) following previously described procedures.[84]^,[85] The native PfMDR1 locus was engineered using CRISPR/SpCas9 to afford transcriptional fusion of 10 tandem TetR-DOZI binding aptamers in the 3′UTR for anhydrotetracycline (aTc)-dependent regulation of PfMDR1 expression.
# As a control cell line, a parasite line expressing an aptamer-regulatable fluorescent protein integrated in the cg6 locus[84] was assayed in parallel. Synchronous ring-stage parasites in the presence (0.5 μM) and absence of aTc were dispensed into 384-well polystyrene microplates (Corning®), and compounds added using the Janus® platform (PerkinElmer). DMSO- and DHA (0.5 μM) served as normalization controls for maximal and minimum signal. Luminescence was measured after 72 h and IC50 values were obtained from normalized dose-response curves using GraphPad Prism Version 8.
# [2] = tested on: P. falciparum 3D7; assay: Phenotypic screen: asexual blood stage EC50 determination (SYBR Green I); format: cell-based; conditions: CQ sensitive line, asynchronous culture, 72 h, mean ± SEM, biological triplicate
# Method: Asexual blood stage parasites grown in the Chakrabarti laboratory were cultured based on a protocol by Trager and Jensen[57] with some modifications.[35] Culture was maintained at 4% hematocrit with human A+ whole blood obtained from the Florida OneBlood, in RPMI 1640 supplemented with 25 mM HEPES pH 7.4, 26 mM NaHCO3, 2% dextrose, 15 mg/L hypoxanthine, 25 mg/L gentamycin, and 0.5% Albumax II. Incubator conditions remained at 37°C and 5% CO2, 5% O2, 90% N2, or 95% air. For comparison screening using serum vs Albumax II, culture media was changed from RPMI with 0.5% Albumax II to RPMI with 10% human serum and maintained for a minimum of 2 weeks prior to assay use.
# (§1) Inhibitor EC50 determination in 3D7 and Dd2 was performed as discussed in,[35] based on established protocols.[60] Assays utilized asynchronous culture at 1% parasitemia, 1% hematocrit. Culture was incubated with compound dilutions for 72 h followed by freezing at −80°C to promote lysis, then thawing and incubation for 45 min–1 h with 1× SYBR Green I in a lysis buffer (20 mM Tris-HCL, 0.08% saponin, 5 mM EDTA, and 0.8% Triton X-100). Fluorescence was read 485 nm excitation, 530 nm emission on a Synergy Neo2 multimode reader (BioTek Winsooki, VT) and EC50 curves were generated using CDD Vault (https://www.collaborativedrug.com/).
# [3] = tested on: Dd2 strain parasites, digestive vacuole; assay: Transmission electron microscopy of treated parasites; further: key: -: A '–' indicates a negative finding; a single '+' indicates a positive finding; a double '++' indicates a strong positive finding; format: cell-based, P. falciparum; conditions: Figure 7A summary
# Method: For TEM imaging, samples were prepared as previously described.[67] […] Culture was collected by centrifugation and washed with PBS, pH 7.4. Samples were then fixed in 2% paraformaldehyde, 2.5% glutaraldehyde, in a 0.1 M sodium cacodylate buffer, pH of 7.4, (Electron Microscopy Sciences, Hatfield, PA) and incubated for 2 h at room temp with mild shaking. After fixation, samples were pelleted and stored cold but not frozen in 0.2 M sodium cacodylate buffer prior to staining and embedment in Eponate 12 resin (Ted Pella Inc.). Images were taken using a JEOL 1200 EX transmission electron microscope (JEOL USA Inc., Peabody MA) and processed in AMT Image Capture Engine V602 software (Advanced Microscopy Techniques, Woburn, MA.).
# [4] = tested on: asynchronous Dd2 culture; assay: Killing profile (flow cytometry, SYBR Green I / Mitotracker Deep Red FM); format: cell-based, P. falciparum; conditions: for Killing Profile: 10 x EC50
# Method: Killing profile analyses were performed as previously described,[64] in asynchronous Dd2 culture, starting at approximately 1% parasitemia, 4% hematocrit. Compound was added to culture in majority ring stage and incubated for 12, 24, or 48 h prior to washing and sample collection. Media were then changed normally every 24 h for 6 days. Samples taken each day were used for Giemsa thin smears, and flow cytometric analysis to monitor parasitemia and mitotracker retention. For staining, samples were incubated in a solution of 1:1000 SYBR Green I and 0.6 μM Mitotracker Deep red FM for 30 min then read on a CytoFLEX S (Beckman Coulter, Brea, CA), with 100,000 events recorded per sample. Flow cytometry was gated in FlowJo Version 10 using DHA, vehicle, no Mitotracker, and uninfected RBC controls. Assay workflow outline was created using BioRender.
# [5] = tested on: P. falciparum asexual blood stage parasites grown in 10% human serum; assay: Antiplasmodial activity with serum media; format: cell-based; conditions: RPMI with 10% human serum, maintained minimum 2 weeks; mean ± SEM from 3 biological replicates
# Method: Asexual blood stage parasites grown in the Chakrabarti laboratory were cultured based on a protocol by Trager and Jensen[57] with some modifications.[35] […] For comparison screening using serum vs Albumax II, culture media was changed from RPMI with 0.5% Albumax II to RPMI with 10% human serum and maintained for a minimum of 2 weeks prior to assay use.
# as §1
# [6] = tested on: synchronized Dd2 parasites; assay: Synchronous stage specificity assay (SSA); format: cell-based, P. falciparum; conditions: for stage of parasite arrest when added at 6 HPI: 5 x EC50 (TC HA-II 3 x EC50), Giemsa and YOYO-1 flow cytometry; for Stage of Inhibition: Figure 7A summary
# Method: SSA was performed in triplicate as previously described.[64] In summary, Dd2 culture was synchronized by combination of MACS column[65] and sorbitol treatment,[66] and cultured at 1% parasitemia, 2% hematocrit, for 54 h. Compound was added at approximately 6, 18, 30, or 42 HPI, and samples were taken every 12 h after treatment times for Giemsa staining and flow cytometric analysis. HZ NPDG-H and HZ NPDG-I were tested at 5 x EC50, TC HA-II tested at 3 x EC50 due to its higher hemolytic potential. All test values above EC90. Flow samples were fixed in 4% paraformaldehyde, incubated for 30 min at 37°C, then washed 3 times in PBS. Fixed samples were stored at 4°C prior to staining, then resuspended in 0.25% Trition X-100 and incubated for 10 min with shaking. Permeabilized samples were centrifuged and resuspended in a 50 μg/mL RNase solution, and incubated for 3 h at 37°C. After centrifugation, samples were resuspended in a YOYO-1 solution (500 nM final concentration) and read on a CytoFLEX S (Beckman Coulter, Brea, CA) at 488 nm excitation, with 100,000–500,000 events recorded per sample. Infected RBCs were gated using an uninfected RBC control in FlowJo version 10. After gating populations, FITC channel values were extracted from FlowJo and the sum total fluorescence of the iRBCs and the median fluorescence for each timepoint were graphed in Graph Pad Prism Version 9. Assay workflow outline was created using BioRender.
# [7] = 10 x EC50, monitored for 6 days, 3 biological replicates
compound,measurement,setting,value
"CC(=O)NC(C)(C)C(=O)N1CCC[C@H]1C(=O)NC(C)(C)C(=O)N[C@@H](C)C(=O)NC(C)(C)C(=O)N[C@@H](C)C(=O)N[C@@H](CCC(N)=O)C(=O)NC(C)(C)C(=O)N[C@H](C(=O)NC(C)(C)C(=O)NCC(=O)N[C@@H](CC(C)C)C(=O)NC(C)(C)C(=O)N1CCC[C@H]1C(=O)N[C@H](C(=O)NC(C)(C)C(=O)NC(C)(C)C(=O)N[C@@H](CCC(=O)O)C(=O)N[C@@H](CCC(N)=O)C(=O)N[C@H](CO)Cc1ccccc1)C(C)C)C(C)C [Alamethicin, reference compound] (Ac-[Aib]P[Aib]A[Aib]AQ[Aib]V[Aib]GL[Aib]PV[Aib][Aib]EQ[Phe(ol)]; N-terminus assumed)",shift in sensitivity upon PfMDR1 knockdown,[1],no differential sensitivity
same,EC50,[2],540 ± 30 nM
"CC[C@H](C)[C@H](NC(=O)[C@H](C)NC(=O)[C@@H]1CCCN1C(=O)C(C)(C)NC(=O)[C@H](CC(C)C)NC(=O)[C@H](CCC(N)=O)NC(=O)[C@@](C)(CC)NC(C)=O)C(=O)NC(C)(C)C(=O)N1CCC[C@H]1C(=O)N[C@](C)(CC)C(=O)N[C@@H](CC(C)C)C(=O)NC(C)(C)C(=O)N1CCC[C@H]1C(=O)N[C@H](CO)CC(C)C [HZ NPDG-H, harzianin NPDG H] (Ac-[dIva]QL[Aib]PAI[Aib]P[dIva]L[Aib]P[Leu(ol)])",DV Abnormalities,[3],+
same,Killing Profile,[4],cytostatic
same,parasitemia after 12 h incubation and washout,[4]; [7],recovered by day 3
same,parasitemia after 48 h incubation and washout,[4]; [7],increase in parasitemia at day 5
same,Killing Profile,[4]; listed as Harzianin NPDG H,Slow
same,pfMDR1 cKD Sensitivity,[1],+
same,shift in sensitivity upon PfMDR1 knockdown,[1],~6 fold
same,EC50,[5],690 ± 90 nM
same,stage of parasite arrest when added at 6 HPI,[6],late trophozoite to early schizont stage
same,Stage of Inhibition,[6],Schizont
same,EC50,[2],120 ± 10 nM
"CC[C@H](C)[C@H](NC(=O)[C@H](CC(C)C)NC(=O)[C@H](CCC(N)=O)NC(=O)[C@@](C)(CC)NC(C)=O)C(=O)NC(C)(C)C(=O)N1CCC[C@H]1C(=O)N[C@](C)(CC)C(=O)N[C@@H](CC(C)C)C(=O)NC(C)(C)C(=O)N1CCC[C@H]1C(=O)N[C@H](CO)CC(C)C [HZ NPDG-I, harzianin NPDG I] (Ac-[dIva]QLI[Aib]P[dIva]L[Aib]P[Leu(ol)])",DV Abnormalities,[3],+
same,Killing Profile,[4],Rapid
same,parasitemia after 12 h incubation and washout,[4]; [7],inhibit parasitemia for all 6 days
same,pfMDR1 cKD Sensitivity,[1],++
same,shift in sensitivity upon PfMDR1 knockdown,[1],43 fold
same,EC50,[5],260 ± 30 nM
same,stage of parasite arrest when added at 6 HPI,[6],arrest parasite development in early ring
same,Stage of Inhibition,[6],Ring
same,EC50,[2],120 ± 10 nM
"CC[C@@](C)(NC(=O)C(C)(C)NC(=O)[C@H](CC(C)C)NC(=O)[C@@H]1CCCN1C(=O)C(C)(C)NC(=O)[C@H](CC(C)C)NC(=O)CNC(=O)C(C)(C)NC(=O)[C@@H](NC(=O)C(C)(C)NC(=O)[C@H](CCC(N)=O)NC(=O)C(C)(C)NC(=O)C(C)(C)NC(=O)[C@H](C)NC(=O)CNC(=O)C(C)(C)NC(C)=O)C(C)C)C(=O)N[C@@H](CCC(N)=O)C(=O)N[C@H](CO)CC(C)C [TC HA-II, trichorzin HA II] (Ac-[Aib]GA[Aib][Aib]Q[Aib]V[Aib]GL[Aib]PL[Aib][dIva]Q[Leu(ol)])",DV Abnormalities,[3],+
same,Killing Profile,[4],Rapid
same,parasitemia after 12 h incubation and washout,[4]; [7],inhibit parasitemia for all 6 days
same,shift in sensitivity upon PfMDR1 knockdown,[1],no differential sensitivity
same,EC50,[5],2200 ± 270 nM
same,stage of parasite arrest when added at 6 HPI,[6],early arrest with a condensed permatroph morphology
same,Stage of Inhibition,[6],Ring
same,EC50,[2],390 ± 90 nM

# From article PMC10923054, “Antiplasmodial peptaibols act through membrane directed mechanisms” (Cell Chemical Biology, 2024)
